Assay results published in ChEMBL document CHEMBL4043159, “Structural evidence for the DPPH radical-scavenging mechanism of 2-O-α-d-glucopyranosyl-l-ascorbic acid” (Bioorg Med Chem, 2017).
Active and inactive are the calls of the source. No cut-off for these calls is given here.

Assays:
Type in all cases: functional
[1] = Antioxidant activity assessed as time duration for DPPH free radical scavenging activity at 20 uM by HPLC
[2] = Antioxidant activity assessed as DPPH free radical scavenging activity by measuring radical-scavenging activity factor (moles of radicals scavenged by each mol of antioxidant) at 20 uM measured at 120 mins by HPLC
[3] = Antioxidant activity assessed as DPPH free radical scavenging activity by measuring retention time of AA-2G-DPPH product at 20 uM incubated for 30 mins by HPLC method
[4] = Antioxidant activity assessed as DPPH free radical scavenging activity by measuring radical-scavenging activity factor (moles of radicals scavenged by each mol of antioxidant) at 20 uM measured at 10 mins by HPLC
[5] = Antioxidant activity assessed as DPPH free radical scavenging activity by measuring amount of compound consumed at 200 uM measured at 10 mins by HPLC
[6] = Antioxidant activity assessed as DPPH free radical scavenging activity by measuring AA-2G-DPPH product formation at 0.25 to 0.75 mM incubated for 30 mins by HPLC method
[7] = Antioxidant activity assessed as DPPH free radical scavenging activity by measuring radical-scavenging activity factor (moles of radicals scavenged by each mol of antioxidant) at 20 uM measured at 30 mins by HPLC
[8] = Antioxidant activity assessed as DPPH free radical scavenging activity by measuring AA-2G-DPPH adducts formation at 200 uM measured within 10 mins by HPLC
[9] = Antioxidant activity assessed as DPPH free radical scavenging activity by measuring AA-2G-DPPH adducts formation at 5 mM incubated for 10 to 30 mins by 1H NMR spectroscopy
[10] = Antioxidant activity assessed as DPPH free radical scavenging activity by measuring AA-2G-DPPH adducts level at 200 uM measured at 10 mins by HPLC
[11] = Antioxidant activity assessed as DPPH free radical scavenging activity by measuring radical-scavenging activity factor (moles of radicals scavenged by each mol of antioxidant) at 20 uM measured at 15 mins by HPLC

## O=C1O[C@H]([C@@H](O)CO)C(O)=C1O[C@H]1O[C@H](CO)[C@@H](O)[C@H](O)[C@H]1O
[1]
  TIME: 2 h
[2]
  scavenging factor: 2.7 mol/mol
[3]
  Retention time: 15 min
[4]
  scavenging factor: 1.5 mol/mol
[5]
  Activity: 190 µM
[6]
  Activity: Dose-dependent effect
[7]
  scavenging factor: 2.1 mol/mol
[8]
  Activity: Active
[9]
  Activity: Active
[10]
  Activity: 190 µM
[11]
  scavenging factor: 1.7 mol/mol

## O=C1O[C@H]([C@@H](O)CO)C(O)=C1O
[1]
  TIME: < 0.0167 h
[2]
  scavenging factor: 1.9 mol/mol
[3]
  Activity: inactive
[4]
  scavenging factor: 1.8 mol/mol
[7]
  scavenging factor: 1.9 mol/mol
[11]
  scavenging factor: 1.8 mol/mol
